Among the data in patent US8378117B2 (priority 2005, dated 2013) are inhibition values, retold here.

For one assay, the target named is T1, CB1 receptor (Homo sapiens, UniProt P21554).
T1 construct: expressed in transfected cells
Put plainly: Binding assay for CB1 agonists or inverse agonists (SK-N-MC membranes, [3H]-CP-55,940). In outline:
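Membranes from SK-N-MC cells stably expressing human CB1 incubated with compound and [3H]-CP-55,940 ([…]) for 90 min at 30° C in Tris-HCl pH 7.5, MgCl2, EDTA, fatty-acid-free BSA. Non-specific binding defined with 10 uM WIN 55,212; filtration, scintillation count; IC50 by linear regression.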

In another assay the target is T2, CB2 receptor (Homo sapiens, UniProt P34972).
T2 construct: expressed in transfected cells
T2 sequence (P34972 whole entry): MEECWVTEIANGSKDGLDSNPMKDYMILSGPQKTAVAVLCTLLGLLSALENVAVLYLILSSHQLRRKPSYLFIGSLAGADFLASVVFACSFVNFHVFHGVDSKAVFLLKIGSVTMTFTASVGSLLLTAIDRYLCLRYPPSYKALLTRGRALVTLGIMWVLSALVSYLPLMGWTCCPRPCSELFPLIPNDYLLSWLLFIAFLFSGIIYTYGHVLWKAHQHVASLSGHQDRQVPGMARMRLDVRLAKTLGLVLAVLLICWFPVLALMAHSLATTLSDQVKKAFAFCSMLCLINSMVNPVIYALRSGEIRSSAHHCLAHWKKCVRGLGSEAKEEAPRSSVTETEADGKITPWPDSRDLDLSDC
Description: Binding assay for CB2 agonists or inverse agonists (SK-N-MC membranes, [3H]-CP-55,940). In outline:
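Membranes from SK-N-MC cells stably expressing human CB2 were incubated with radioligand and test compounds for 90 min at 30 °C in Tris-HCl buffer, pH 7.5, with MgCl2, EDTA and fatty-acid-free BSA. Filter-bound radioactivity was counted; IC50 was derived by linear regression of percent inhibition.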

[1] abbreviates: read-out: CB1 receptor binding percent inhibition, test concentration 0.2 μM (footnote 2).
[2] abbreviates: test concentration 0.2 μM (footnote 2), read-out: CB2 receptor binding percent inhibition.
The mark [3] stands for this setting: read-out: CB2 receptor binding percent inhibition, test concentration 0.2 μM (footnote 2).

SMILES strings stand for the structures. Like-named read-outs stand apart in the source and are kept apart here.

T1 sequence (P21554 whole entry): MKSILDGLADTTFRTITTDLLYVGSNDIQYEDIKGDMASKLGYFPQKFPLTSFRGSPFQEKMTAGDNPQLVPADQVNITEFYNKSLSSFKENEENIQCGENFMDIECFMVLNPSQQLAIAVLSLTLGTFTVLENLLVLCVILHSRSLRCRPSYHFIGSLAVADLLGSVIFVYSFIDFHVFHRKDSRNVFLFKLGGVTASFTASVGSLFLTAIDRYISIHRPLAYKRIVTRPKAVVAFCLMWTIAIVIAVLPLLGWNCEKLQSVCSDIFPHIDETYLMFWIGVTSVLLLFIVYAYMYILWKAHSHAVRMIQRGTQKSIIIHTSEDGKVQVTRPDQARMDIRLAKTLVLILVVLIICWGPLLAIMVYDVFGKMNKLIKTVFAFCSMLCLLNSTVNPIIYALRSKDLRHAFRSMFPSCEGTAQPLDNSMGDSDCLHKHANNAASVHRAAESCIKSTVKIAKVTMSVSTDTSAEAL

Regarding `O=C(N[C@@H](CCl)Cc1ccccc1)c1nn(-c2nccc(C(F)(F)F)n2)c2c1CCCCC2Cc1cccc(Cl)c1` (stereo partly drawn) [Cpd 187, 8-(3-chloro-benzyl)-1-(4-trifluoromethyl-pyrimidin-2-yl)-1,4,5,6,7,8-hexahydro-cycloheptapyrazole-3-carboxylic acid [(1R)-1-benzyl-2-chloro-ethyl]-amide], the inhibition at 0.2 µM on CB1 receptor (setting [1]) was found to be 12%; on CB2 receptor (setting [2]), 23%.
For `C[C@H](NC(=O)c1nn(-c2ccccc2Cl)c2c1CCCC/C2=C\c1ccc(Cl)cc1)c1ccccc1` [Cpd 191, (8E)-8-(4-chloro-benzylidene)-1-(2-chloro-phenyl)-1,4,5,6,7,8-hexahydro-cycloheptapyrazole-3-carboxylic acid [(1S)-1-phenyl-ethyl]-amide], the inhibition at 0.2 µM at CB1 receptor (setting [1]) amounted to 47%; on CB2 receptor (setting [3]), 7%.
The matching figures for `C[C@H](NC(=O)c1nn(-c2ccccc2Cl)c2c1CCCC/C2=C\c1ccc(Cl)cc1)C1CCCCC1` [Cpd 192, (8E)-8-(4-chloro-benzylidene)-1-(2-chloro-phenyl)-1,4,5,6,7,8-hexahydro-cycloheptapyrazole-3-carboxylic acid [(1S)-1-cyclohexyl-ethyl]-amide]: 45% and 7%.
With `O=C(NN1CCCCC1)c1nn(-c2ccccc2Cl)c2c1CCCC/C2=C\c1ccc(Cl)cc1` [Cpd 193, (8E)-8-(4-chloro-benzylidene)-1-(2-chloro-phenyl)-1,4,5,6,7,8-hexahydro-cycloheptapyrazole-3-carboxylic acid piperidin-1-ylamide], the inhibition at 0.2 µM was 43% at CB1 receptor (setting [1]) and 16% on CB2 receptor (setting [2]).
In the same order, the values of `O=C(NN1CCOCC1)c1nn(-c2ccccc2Cl)c2c1CCCC/C2=C\c1ccc(Cl)cc1` [Cpd 194, (8E)-8-(4-chloro-benzylidene)-1-(2-chloro-phenyl)-1,4,5,6,7,8-hexahydro-cycloheptapyrazole-3-carboxylic acid morpholin-4-ylamide] are 19% and 10%.
As to `C[C@@H](NC(=O)c1nn(-c2cc(Cl)ccc2Cl)c2c1CCCC/C2=C\c1ccc(Cl)cc1)c1ccccc1` [Cpd 195, (8E)-8-(4-chloro-benzylidene)-1-(2,5-dichloro-phenyl)-1,4,5,6,7,8-hexahydro-cycloheptapyrazole-3-carboxylic acid [(1R)-1-phenyl-ethyl]-amide], the results for the inhibition at 0.2 µM on CB1 receptor (read-out: CB1 receptor binding percent inhibition) and at CB2 receptor (setting [3]) were 63% and 37%, respectively.
As for `C[C@@H](NC(=O)c1nn(-c2cc(Cl)ccc2Cl)c2c1CCCC/C2=C\c1ccc(Cl)cc1)C1CCCCC1` [Cpd 196, (8E)-8-(4-chloro-benzylidene)-1-(2,5-dichloro-phenyl)-1,4,5,6,7,8-hexahydro-cycloheptapyrazole-3-carboxylic acid [(1R)-1-cyclohexyl-ethyl]-amide], the inhibition at 0.2 µM at CB1 receptor (setting [1]) was found to be 67%; at CB2 receptor (setting [3]) it was 49%.
Take `O=C(NN1CCCCC1)c1nn(-c2cc(Cl)ccc2Cl)c2c1CCCC/C2=C\c1ccc(Cl)cc1` [Cpd 199, (8E)-8-(4-chloro-benzylidene)-1-(2,5-dichloro-phenyl)-1,4,5,6,7,8-hexahydro-cycloheptapyrazole-3-carboxylic acid piperidin-1-ylamide]: the inhibition at 0.2 µM at CB1 receptor (setting [1]) and on CB2 receptor (setting [2]) was 30% in each case.
For `O=C(NN1CCOCC1)c1nn(-c2cc(Cl)ccc2Cl)c2c1CCCC/C2=C\c1ccc(Cl)cc1` [Cpd 200, (8E)-8-(4-chloro-benzylidene)-1-(2,5-dichloro-phenyl)-1,4,5,6,7,8-hexahydro-cycloheptapyrazole-3-carboxylic acid morpholin-4-ylamide], the inhibition at 0.2 µM at CB1 receptor (setting [1]) stood at 15%; at CB2 receptor (setting [2]), 6%.
The matching figures for `O=C(c1nn(-c2cc(Cl)ccc2Cl)c2c1CCCC/C2=C\c1ccc(Cl)cc1)N1CCOCC1` [Cpd 201, (8E)-[8-(4-chloro-benzylidene)-1-(2,5-dichloro-phenyl)-1,4,5,6,7,8-hexahydro-cycloheptapyrazol-3-yl]-morpholin-4-yl-methanone]: 11% and 0%.
